# Results published in paper PMC7643960 (PLoS ONE, 2020).
# “And” between values parts separate entries of the source, which are not always exact repeats. Identical values can stand only once.
# Assays:
# Type in all cases: cell-based, horse
# [1] = tested on: primary ES cells sRGO1; assay: MTS cytotoxicity assay; details: for IC50: mean (95% CI)
# Method: (§1) All cells used for the experiments originate from different horses. Primary EMM cells (MelDuWi) and primary equine dermal fibroblasts (PriFi1, PriFi2) belong to the cell culture stock of the Clinic for Horses, University of Veterinary Medicine Hannover, Foundation, Hannover, Germany.
# (§2) The cytotoxicity of the compounds was assessed by the CellTiter 96® AQueous One Solution Cell Proliferation Assay (MTS) (Promega GmbH, Mannheim, Germany) as reported. In brief, in order to reach cell confluence within 48 h, cells were seeded into 96-well plates in adequate densities (MelDuWi 30,000 cells/well; PriFi1, PriFi2, eRGO1 20,000 cells/well; sRGO1and sRGO2 15,000 cells/well). […] The formazan dye generated by the metabolic active cells was quantified photometrically. Cytotoxicity assays were performed in six to nine biological replicates with two technical replicates for each combination of cell type, incubation time and compound concentration.
# (§3) Technical duplicates with a coefficient of variation of more than 20% were excluded from the cell assay analysis. […] Additional statistical data analysis was conducted with R 3.5.1.. A generalized additive model was fitted for each test (MTS and CVS) and cell type comparison (primary EMM cells and fibroblasts, and primary ES cells and fibroblasts) using the ‘mgcv’ package. Compound concentrations and the duration of incubation were modeled as tensor product smooth interacting with compound and cell line. Cell passage was added as a random effect. An appropriate distribution was selected by the visual inspection of residuals. The p-values were obtained by performing a Wald test for each parameter. Statistical significance was set at 0.05.
# [2] = tested on: primary ES cells sRGO2; assay: MTS cytotoxicity assay; details: for IC50: mean (95% CI)
# Method: as §1, §2, §3
# [3] = tested on: primary EMM cells eRGO1; assay: MTS cytotoxicity assay; details: for IC50: mean (95% CI)
# Method: as §1, §2, §3
# [4] = tested on: primary EMM cells MelDuWi; assay: MTS cytotoxicity assay; details: for IC50: mean (95% CI)
# Method: as §1, §2, §3
# [5] = tested on: primary equine dermal fibroblasts PriFi1; assay: MTS cytotoxicity assay; details: for IC50: mean (95% CI)
# Method: as §1, §2, §3
# [6] = tested on: primary equine dermal fibroblasts PriFi2; assay: MTS cytotoxicity assay; details: for IC50: mean (95% CI)
# Method: as §1, §2, §3
# [7] = tested on: equine dermal fibroblasts PriFri2; assay: AnnexinV-FITC/propidium iodide staining, flow cytometry
# Method: Approximately 7.5 × 10^5 cells (MelDuWi) and 1.0 × 10^6 cells (PriFri2 and sRGO2) were seeded in 25 cm^2 cell culture flasks. […] Following 24 and 48 h of incubation, cells were harvested by mild trypsinization and washed twice with PBS buffer (containing Mg^2+ and Ca^2+). Cells (1.0 × 10^6) were resuspended in AnnexinV binding buffer (BioLegend®, San Diego, US) to a concentration of 1.0 ‧ 10^6 cells/mL. Approximately 100,000 cells were stained with propidium iodide solution ([…], 1 mg/mL) and FITC AnnexinV solution ([…], BioLegend®) for 15 min in the dark at room temperature. After the addition of Annexin V binding buffer ([…]), the suspension was analyzed using the Attune® FACS machine (Life Technologies). After gating for living cells, the data from detectors BL-1A and BL-3A were collected. A total of 20,000 events were collected from each sample and technical duplicates were measured.
# [8] = tested on: EMM cells MelDuWi; assay: cell cycle investigation by flow cytometry (propidium iodide); details: double IC50 concentration
# Method: (§4) Approximately 7.5 × 10^5 cells (MelDuWi) and 1.0 × 10^6 cells (PriFri2 and sRGO2) were seeded in 25 cm^2 cell culture flasks. […] Following 24 and 48 h of incubation, the cells were harvested by mild trypsinization and washed twice with phosphate-buffered saline (PBS) buffer (containing Mg^2+ and Ca^2+). Cells (1.0 × 10^6) were fixed with ethanol (70%, -20°C, for 24 h). After discarding the ethanol, the cells were washed in 1 mL PBS buffer (containing Mg^2+ and Ca^2+) and were centrifuged. The cell pellet was resuspended in 1 mL of staining PBS buffer (containing Mg^2+ and Ca^2+, 10 μg/mL RNASe [Thermofisher] and 15 μg/mL propidium iodide [Sigma-Aldrich, Munich, Germany]) and was incubated for 30 min at room temperature. Analyses were performed using the Attune® FACS machine (Life Technologies, Darmstadt, Germany) collecting data from the BL-2A channel. Doublet cells were excluded from the measurements by plotting BL-2A against BL-2H. A total of 20,000 events were collected for each cell cycle distribution. Each sample was measured in duplicate.
# [9] = tested on: ES cells sRGO2; assay: as above; details: double IC50 concentration
# Method: as §4
# [10] = tested on: equine dermal fibroblasts PriFri2; assay: as above; details: double IC50 concentration
# Method: as §4
# [11] = PriFri2, 24 h, double IC50 concentration
# [12] = PriFri2, 48 h, double IC50 concentration
# [13] = equine dermal fibroblasts, 24 h, versus control
smiles,measurement,setting,value
"C=C(C)[C@@H]1CC[C@]2(C(=O)OCC(N)(CO)CO)CC[C@]3(C)[C@H](CC[C@@H]4[C@@]5(C)CC[C@H](OC(C)=O)C(C)(C)[C@@H]5CC[C@]43C)[C@@H]12 [NVX-207, 3-acetyl-betulinic acid-2-amino-3-hydroxy-2-hydroxymethyl-propanoate]",IC50,"[1]; sRGO1, 5 h",9 µM
same,IC50,"[1]; sRGO1, 24 h",4 µM
same,IC50,"[1]; sRGO1, 48 h",2 µM
same,times more cytotoxic than BBS,"[1]; sRGO1, after 48 h, MTS",about 11 times
same,IC50,"[2]; sRGO2, 5 h",8 µM
same,IC50,"[2]; sRGO2, 24 h",3 µM
same,IC50,"[2]; sRGO2, 48 h",1 µM
same,times more cytotoxic than BBS,"[2]; sRGO2, after 48 h, MTS",about 25 times
same,IC50,"[3]; eRGO1, 5 h",9 µM
same,IC50,"[3]; eRGO1, 24 h",7 µM
same,IC50,"[3]; eRGO1, 48 h",4 µM
same,IC50,"[3]; eRGO1, 96 h",< 1 µM
same,times more cytotoxic than BBS,"[3]; eRGO1, after 48 h, MTS",~8 times
same,IC50,[4]; 24 h,18 µM
same,IC50,[4]; 48 h,15 µM
same,IC50,[4]; 96 h,8 µM
same,times more cytotoxic than BBS,"[4]; after 48 h, MTS",~3 times
same,IC50,"[5]; PriFi1, 5 h",11 µM
same,IC50,"[5]; PriFi1, 24 h",4 µM
same,IC50,"[5]; PriFi1, 48 h",1 µM
same,IC50,"[5]; PriFi1, 96 h",< 1 µM
same,times more cytotoxic than BBS,"[5]; PriFi1, after 48 h, MTS",~34 times
same,IC50,"[6]; PriFi2, 5 h",20 µM
same,IC50,"[6]; PriFi2, 24 h",7 µM
same,IC50,"[6]; PriFi2, 96 h",4 µM
same,times more cytotoxic than BBS,"[6]; PriFi2, after 48 h, MTS",~9 times
same,AnnexinV staining: apoptotic cells,"[7]; PriFi2, 48 h, double IC50 concentration",about 85%
same,AnnexinV staining: Living cells,[7]; [11],"50,0%"
same,AnnexinV staining: early apop,[7]; [11],"10,2%"
same,AnnexinV staining: late apop,[7]; [11],"37,6%"
same,AnnexinV staining: necrotic,[7]; [11],"2,2%"
same,AnnexinV staining: Living cells,[7]; [12],"12,3%"
same,AnnexinV staining: early apop,[7]; [12],"17,9%"
same,AnnexinV staining: late apop,[7]; [12],"67,1%"
same,Cell cycle percentage G1/G0,[8]; 24 h,"77,4%"
same,Cell cycle percentage M,[8]; 24 h,"0,8%"
same,Cell cycle percentage S,[8]; 24 h,"14,4%"
same,Cell cycle percentage SubG1,[8]; 24 h,"7,1%"
same,Cell cycle percentage G1/G0,[8]; 48 h,"26,8%"
same,Cell cycle percentage M,[8]; 48 h,"0,3%"
same,Cell cycle percentage S,[8]; 48 h,"12,9%"
same,Cell cycle percentage G1/G0,"[9]; sRGO2, 24 h","76,6%"
same,Cell cycle percentage M,"[9]; sRGO2, 24 h","6,4%"
same,Cell cycle percentage S,"[9]; sRGO2, 24 h","15,8%"
same,Cell cycle percentage SubG1,"[9]; sRGO2, 24 h","0,6%"
same,Cell cycle percentage G1/G0,"[9]; sRGO2, 48 h","64,5%"
same,Cell cycle percentage M,"[9]; sRGO2, 48 h","3,9%"
same,Cell cycle percentage S,"[9]; sRGO2, 48 h","13,7%"
same,Cell cycle percentage SubG1,"[9]; sRGO2, 48 h","17,1%"
same,Cell cycle percentage G1/G0,"[10]; PriFri2, 24 h","43,1%"
same,Cell cycle percentage M,"[10]; PriFri2, 24 h","1,3%"
same,Cell cycle percentage S,"[10]; PriFri2, 24 h","10,8%"
same,Cell cycle percentage SubG1,"[10]; PriFri2, 24 h","44,1%"
same,Cell cycle percentage G1/G0,"[10]; PriFri2, 48 h","14,8%"
same,Cell cycle percentage M,"[10]; PriFri2, 48 h","0,1%"
same,Cell cycle percentage S,"[10]; PriFri2, 48 h","2,9%"
same,Cell cycle percentage SubG1,"[10]; PriFri2, 48 h","81,9%"
"C=C(C)[C@@H]1CC[C@]2(COS(N)(=O)=O)CC[C@]3(C)[C@H](CC[C@@H]4[C@@]5(C)CC[C@H](OS(N)(=O)=O)C(C)(C)[C@@H]5CC[C@]43C)[C@@H]12 [BBS, (3β)-Lup-20(29)-ene-3,28-diol, 3,28-disulfamate]",IC50,"[1]; sRGO1, 5 h",> 100 µM
same,IC50,"[1]; sRGO1, 48 h",25 µM
same,IC50,"[2]; sRGO2, 5 h",> 100 µM
same,IC50,"[2]; sRGO2, 24 h",45 µM
same,IC50,"[2]; sRGO2, 48 h",28 µM
same,IC50,"[3]; eRGO1, 5 h",> 100 µM
same,IC50,"[3]; eRGO1, 24 h",47 µM
same,IC50,"[3]; eRGO1, 48 h",32 µM
same,IC50,"[3]; eRGO1, 96 h",16 µM
same,IC50,[4]; 5 h,> 100 µM
same,IC50,[4]; 24 h,60 µM
same,IC50,[4]; 48 h,53 µM
same,IC50,[4]; 96 h,32 µM
same,IC50,"[5]; PriFi1, 5 h",> 100 µM
same,IC50,"[5]; PriFi1, 24 h",59 µM
same,IC50,"[5]; PriFi1, 48 h",35 µM
same,IC50,"[5]; PriFi1, 96 h",28 µM
same,IC50,"[6]; PriFi2, 5 h",> 100 µM
same,IC50,"[6]; PriFi2, 24 h",77 µM
same,IC50,"[6]; PriFi2, 48 h",61 µM
same,IC50,"[6]; PriFi2, 96 h",20 µM
same,AnnexinV staining: Living cells,[7]; [11],"68,0%"
same,AnnexinV staining: early apop,[7]; [11],"8,0%"
same,AnnexinV staining: late apop,[7]; [11],"22,4%"
same,AnnexinV staining: necrotic,[7]; [11],"1,6%"
same,AnnexinV staining: Living cells,[7]; [12],"33,1%"
same,AnnexinV staining: early apop,[7]; [12],"9,3%"
same,AnnexinV staining: late apop,[7]; [12],54% and 53.6%
same,AnnexinV staining: necrotic,[7]; [12],"4,1%"
same,increase of early apoptotic cells,[7]; [13],5%
same,increase of late apoptotic cells,[7]; [13],3%
same,Cell cycle percentage G1/G0,[8]; 24 h,"68,2%"
same,Cell cycle percentage M,[8]; 24 h,"0,5%"
same,Cell cycle percentage S,[8]; 24 h,"23,9%"
same,Cell cycle percentage SubG1,[8]; 24 h,"6,7%"
same,Cell cycle percentage G1/G0,[8]; 48 h,"48,2%"
same,Cell cycle percentage M,[8]; 48 h,"0,3%"
same,Cell cycle percentage S,[8]; 48 h,"7,6%"
same,Cell cycle percentage G1/G0,"[9]; sRGO2, 24 h","71,9%"
same,Cell cycle percentage M,"[9]; sRGO2, 24 h","1,6%"
same,Cell cycle percentage S,"[9]; sRGO2, 24 h","21,8%"
same,Cell cycle percentage SubG1,"[9]; sRGO2, 24 h","5,3%"
same,Cell cycle percentage G1/G0,"[9]; sRGO2, 48 h","63,2%"
same,Cell cycle percentage M,"[9]; sRGO2, 48 h","1,8%"
same,Cell cycle percentage S,"[9]; sRGO2, 48 h","16,7%"
same,Cell cycle percentage SubG1,"[9]; sRGO2, 48 h","17,5%"
same,Cell cycle percentage G1/G0,"[10]; PriFri2, 24 h","79,1%"
same,Cell cycle percentage M,"[10]; PriFri2, 24 h","1,0%"
same,Cell cycle percentage S,"[10]; PriFri2, 24 h","12,1%"
same,Cell cycle percentage SubG1,"[10]; PriFri2, 24 h","7,1%"
same,Cell cycle percentage G1/G0,"[10]; PriFri2, 48 h","73,7%"
same,Cell cycle percentage M,"[10]; PriFri2, 48 h","0,9%"
same,Cell cycle percentage S,"[10]; PriFri2, 48 h","10,8%"
same,Cell cycle percentage SubG1,"[10]; PriFri2, 48 h","13,7%"
